Read-outs that look alike come from different tables or passages of the source.
Key:
[1] = tested on: amyloid-beta peptide1-42 degenerative neurological disease-induced mice; assay: Probe test (Morris water maze, platform removed); assay type: in vivo, ICR mice; conditions: 90 seconds without platform
Experimental: (§1) In order to induce a degenerative neurological disease, the experimental animals of Preparatory Example 1 were anesthetized by inhalation with 2.5% isoflurane. Then, 1 μg of amyloid-beta peptide1-42, a degenerative neurological disease-inducing substance, was administered to the animals at both hippocampal positions (AP: −2.3, L: ±2.0, H: −1.5) using a stereotaxic apparatus. […] For the administration, 1 μl was injected, at a flow rate of 0.2 μl/min, with a […] gas-tight glass syringe (Hamilton, Reno, NV, USA) using a perfusion pump (Pump 22, Harvard Apparatus, South Natick, MA, USA). Subsequently, the syringe was allowed to stand for 5 minutes and then removed.
(§2) Then, a degenerative neurological disease was induced as in Preparation Example 2.
A circular pool (diameter: 120 cm, height: 75 cm) was filled with water to a depth of 25±1 cm as in FIG. 4, and a 24 cm platform was prepared by hiding it 1 cm below the water surface. Space cues were installed on the four sides of the wall so that the aminals can identify locations, and skimmed milk powder was dissolved into water so that the animals cannot identify the platform with naked eyes. One day before the experiment, all the experimental animals were allowed to swim freely for 1 minute in a water bath having no platform, so that the animals can adapt to the swimming situation. After that, a test group was allowed to start, in any order, from two of the three quadrants except the quadrant where the platform was placed, and allowed to find the platform for 60 seconds. In a case where an animal finds the platform, the animal was allowed to stay thereon for 20 seconds. […] As soon as end of the position learning time, which is the 20-second staying time, the animal was allowed to start again from any quadrant, and the time and distance to reach the platform were measured. The procedure was performed four times a day, and all procedures were taken with a camera and analyzed with a video tracking system (Panlab, USA). Probe trials were made on the fifth day after the four-day experiment in toal was completed. The test group was allowed to swim freely for 90 seconds without the platform, thereby performing evaluation on whether the test group holds a memory of the platform location. The results are illustrated in FIGS. 5 to 7.
The results are illustrated in FIGS. 8 and 9.

[2] = tested on: amyloid-beta peptide1-42 degenerative neurological disease-induced mice; assay: Rotarod test; assay type: in vivo, ICR mice; conditions: p<0.05 vs beta-amyloid group
Experimental: as §1, §2
As an experiment for evaluating effects of the samples on decreased motor coordination ability and motor sensation associated with a degenerative neurological disease, a rotarod experiment which examines the overall motor function of the test groups was conducted. The experimental method was as follows. […] After 24 hours, the time to lose balance and fall off the rotating cylinder of the same condition was measured, and the result is illustrated in FIG. 11.

acetylcholine hydrolase = assay type: in vivo; conditions: brain tissue
Experimental: (§3) Subsequently, the syringe was allowed to stand for 5 minutes and then removed.
Then, acetylcholine hydrolase activity was measured by the following method. To a microplate were continuously added 300 μl of 0.1 M Tris buffer, pH 8.0 (Trizma HCl±Trizmabase), 20 μl of 0.01 M dithionitrobenzoic acid (DTNB; Sigma, USA), 10 μl of brain tissue homogenate (enzyme suspension). Immediately before absorbance measurement, 10 μl of 0.1 M acetylthiocholine chloride (Sigma, USA) as a substrate was added thereto. An absorbance meter was used to observe absorbance changes at 405 nm for 5 minutes, so that acetylcholine hydrolase activity (unit/min/mg protein) was measured.

[3] = tested on: Tunel positive cells in brain tissue; assay: Apoptosis level in brain tissue by TUNEL assay; assay type: in vivo, ICR mice
Experimental: as §3
Then, an apoptosis level was checked through TUNEL assay. The TUNEL assay is a method to search for cells that have undergone apoptosis by attaching a fluorescent substance to ends of DNA fragments cleaved due to apoptosis. The extracted brain tissue of the experimental animal is fixed by perfusion with 4% formaldehyde. Then, the brain tissue was embedded in paraffin and sectioned to a thickness of 5 μm. The brain tissue fixed on a slide was subjected to a TUNEL assay kit so that the end portions where DNA having undergone apoptosis had been fragmented are fluorescence-stained, and checked by a fluorescence microscope.

[4] = assay type: in vitro ADME; conditions: PAMPA
Source text: The results are illustrated in FIG. 17.

[5] = tested on: Salmonella typhimurium TA100
Experimental: For each strain, treatment with a single concentration of 200 μg/plate was performed in triplicate and mutation was checked.

VERO = assay: Cytotoxicity test (Cyto X cell viability assay kit), VERO; assay type: cell-based; conditions: Chlorocebus sabaeus
Experimental: (§4) In order to identify whether the Preparation Example 6 according to the present invention is toxic to cells, a cytotoxicity test was conducted at the Korea Research Institute of Chemical Technology using the Cyto X™ cell viability assay kit ([…]).

NIH 3T3 = assay: Cytotoxicity test (Cyto X cell viability assay kit), NIH 3T3; assay type: cell-based; conditions: Mus musculus, NIH3T3
Experimental: as §4

CHO-K1 = assay: Cytotoxicity test (Cyto X cell viability assay kit), CHO-K1; assay type: cell-based; conditions: Cricetulus griseus
Experimental: as §4

hERG channel = hERG channel (Homo sapiens, UniProt Q12809); assay: Cardiac stability test, hERG ligand binding assay; conditions: read-out: Inhibition rate
hERG channel, sequence (Q12809 whole entry): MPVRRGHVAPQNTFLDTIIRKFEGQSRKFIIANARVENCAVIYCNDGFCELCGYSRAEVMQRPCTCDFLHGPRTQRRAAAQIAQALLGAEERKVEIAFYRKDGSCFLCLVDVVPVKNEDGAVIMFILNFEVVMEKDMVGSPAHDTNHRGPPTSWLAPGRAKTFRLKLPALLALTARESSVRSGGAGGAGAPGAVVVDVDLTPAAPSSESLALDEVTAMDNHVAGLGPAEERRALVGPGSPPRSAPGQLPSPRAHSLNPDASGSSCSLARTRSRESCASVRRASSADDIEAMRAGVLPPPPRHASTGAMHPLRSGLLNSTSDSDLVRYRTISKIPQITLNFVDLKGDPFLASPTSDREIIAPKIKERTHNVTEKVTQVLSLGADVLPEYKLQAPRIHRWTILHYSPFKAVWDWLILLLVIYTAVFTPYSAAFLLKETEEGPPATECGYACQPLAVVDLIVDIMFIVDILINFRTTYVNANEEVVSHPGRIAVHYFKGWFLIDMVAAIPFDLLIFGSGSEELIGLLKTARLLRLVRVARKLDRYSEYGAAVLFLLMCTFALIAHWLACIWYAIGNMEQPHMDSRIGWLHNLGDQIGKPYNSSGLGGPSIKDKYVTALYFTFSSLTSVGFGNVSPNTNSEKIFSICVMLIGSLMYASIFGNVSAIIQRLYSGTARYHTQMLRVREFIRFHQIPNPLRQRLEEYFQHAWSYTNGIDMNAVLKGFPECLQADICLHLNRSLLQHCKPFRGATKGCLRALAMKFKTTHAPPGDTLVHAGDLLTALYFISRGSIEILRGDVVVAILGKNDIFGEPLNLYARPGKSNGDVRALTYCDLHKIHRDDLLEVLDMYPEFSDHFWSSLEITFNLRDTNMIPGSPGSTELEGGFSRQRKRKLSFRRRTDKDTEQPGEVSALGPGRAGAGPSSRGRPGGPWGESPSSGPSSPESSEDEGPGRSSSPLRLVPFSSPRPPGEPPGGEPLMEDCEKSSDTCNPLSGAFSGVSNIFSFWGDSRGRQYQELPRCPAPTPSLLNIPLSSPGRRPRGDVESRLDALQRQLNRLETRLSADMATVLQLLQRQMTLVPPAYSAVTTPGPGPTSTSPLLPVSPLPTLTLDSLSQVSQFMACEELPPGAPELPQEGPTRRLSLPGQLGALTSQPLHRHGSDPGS

Structure (SMILES): COc1ccc(OC)c(/C=C/C(=O)c2ccc(NS(=O)(=O)c3ccc(Cl)cc3)cc2)c1 [Preparation Example 6, (E)-4-Chloro-N-(4-(3-(2,5-dimethoxyphenyl)acryloyl)phenyl)benzenesulfonamide]
- swimming time in the target quadrant ([1]; 1 mg, p<0.05): 31.08 ± 6.33 s
- swimming time in the target quadrant ([1]; 10 mg, p<0.01): 36.73 ± 7.78 s
- swimming time in the target quadrant ([1]; 100 mg, p<0.01): 36.51 ± 6.55 s
- time to keep balance on the rotating cylinder ([2]; 10 mg): 48.62 ± 10.54 s
- time to keep balance on the rotating cylinder ([2]; 100 mg): 47.65 ± 8.13 s
- acetylcholine hydrolase activity (acetylcholine hydrolase; 10 mg): 0.25±0.07 U/mg protein
- acetylcholine hydrolase activity (acetylcholine hydrolase; 100 mg): 0.24±0.05 U/mg protein
- number of Tunel positive cells ([3]; 1 mg, p<0.05): 88.83±18.98
- number of Tunel positive cells ([3]; 10 mg, p<0.01): 69.5±17.87
- number of Tunel positive cells ([3]; 100 mg, p<0.01): 67.00±19.54
- degree of permeability [4]: medium value
- membrane permeability measured value [4]: −4.4±0.152
- Ames reverse mutation test outcome ([5]; TA100, 200 μg/plate, with or without S9): negative
- Reverse mutation [factor] with S-9 mix ([5]; TA100, with S-9, factor versus control): [1.0]
- Reverse mutation/dish (mean ± SD) with S-9 mix ([5]; TA100, with S-9, Preparation Example 6 at 200 μg/plate, Benzo(a)pyrene concentration 2): 117 ± 4
- Reverse mutation [factor] w/o S-9 mix ([5]; TA100, without S-9, factor versus control): [0.9]
- Reverse mutation/dish (mean ± SD) w/o S-9 mix ([5]; TA100, without S-9, Preparation Example 6 at 200 μg/plate, Sodium azide concentration 1): 104 ± 12
- IC50 (VERO): 83.6 µM
- IC50 (NIH 3T3): > 100 µM
- IC50 (CHO-K1): > 100 µM
- inhibition at 10 µM (hERG channel; hERG channel (ligand binding assay)): < 1%
- inhibition at 10 µM (hERG channel): ≤ 1%
